Laboratory results as given in patent US20100280046A1, “Methods and Compositions for Treating Prostate Cancer, Benign Prostatic Hypertrophy, Polycystic Ovary Syndrome and Other Conditions” (DIOBEX, INC., priority 2006, published 2010).
“Also recorded” adds a separate entry of the source.

Tests used:
[1] = Plasma levels of the two ketoconazole enantiomers in patients after fourteen daily doses (FIG. 4, FIG. 5); assay type: in vivo, humans; conditions: for hepatic extraction (from the plasma into the liver): inferred from plasma profiles in patients; for plasma level (pharmacokinetic profile) of the enantiomer after racemic ketoconazole: 400 mg racemic ketoconazole (200 mg 2S,4R and 200 mg 2R,4S) once per day
Experimental: Each patient was given the appropriate drug once per day in the evening. After fourteen daily doses the level of each of the two enantiomers present in the plasma of the patients was determined at the indicated time points following the last dose of drug.
Assays were established and validated using isolated and purified enantiomers. […] Solid phase extraction (SPE) and HPLC/MS/MS were used to determine the concentration of the enantiomers 2R,4S and 2S,4R, of Ketoconzaole from human plasma. 2R,4S and 2S,4R Ketoconzaole were extracted from the plasma sample using SPE, 96 well plates packed with a reversed phase C8 extraction beds from Varian (Lake Forest, Calif.). An aliquot of the extract was injected onto a HPLC/MS/MS triple quadrupole mass spectrometer (Sciex API3000). A Chiralpak AD-H, 5 μm HPLC column (2.1×150 mm) from Chiral Technologies (West Chester, Pa.) preceded by an AD-H guard column (0.4×1.0 cm) were used to separate 2R,4S and 2S,4R Ketoconzaole and the internal standard terconazole. The peak area of multiple product ions (531.4→82.2, […], and 531.4→489.5) of the enantiomers of Ketoconzaole were summed and measured against the peak area of the product ion of the internal standard (terconazole, 534.5-÷ 219.3). Quantitation was performed using 1/x^2 weighted linear least squares regression line generated from similarly extracted plasma calibration samples ranging from 5 to 1000 ng/mL. All plasma was preserved with K3EDTA.

plasma testosterone [2] = test: Plasma testosterone in rats four hours after oral gavage of increasing dosage (FIG. 1); assay type: in vivo; conditions: Sprague-Dawley rats, in olive oil
Experimental: The concentration of testosterone in the plasma of Sprague-Dawley rats was determined four hours after delivery by oral gavage of increasing dosage of the racemate or of the indicated enantiomer.
The effect of ketoconazole and the ketoconazole enantiomers on testosterone levels in the plasma of Sprague Dawley rats was determined. […] To generate the results shown in FIG. 1, fifteen groups (ten per group) of rats were used. The rats were maintained on a 14/10 hour light/dark cycle and allowed free access to food and water. Each rat was dosed with the indicated drug (or vehicle) at the indicated dosage via a gastric tube. All of the rats were dosed between 2.00 and 3.00 pm and were sacrificed four hours later (between 6.00 and 7.00 pm). Plasma was prepared and the concentration of testosterone determined by an enzyme linked immuno assay (ELISA).

plasma testosterone [3] = test: Time course of depression of plasma testosterone in rats after 200 mg/kg (FIG. 2); assay type: in vivo; conditions: Sprague-Dawley rats, 200 mg/kg oral gavage, indicated times after dosing
Experimental: The rats were maintained and dosed as described above. Plasma was prepared at the indicated times after dosing and the concentration of testosterone in the plasma determined by ELISA.

17,20 lyase = conditions: cited from earlier work
17α hydroxylase = molecular target: T1, 17α hydroxylase (Homo sapiens, UniProt P05093); conditions: cited from earlier work
T1 sequence (P05093 1-508): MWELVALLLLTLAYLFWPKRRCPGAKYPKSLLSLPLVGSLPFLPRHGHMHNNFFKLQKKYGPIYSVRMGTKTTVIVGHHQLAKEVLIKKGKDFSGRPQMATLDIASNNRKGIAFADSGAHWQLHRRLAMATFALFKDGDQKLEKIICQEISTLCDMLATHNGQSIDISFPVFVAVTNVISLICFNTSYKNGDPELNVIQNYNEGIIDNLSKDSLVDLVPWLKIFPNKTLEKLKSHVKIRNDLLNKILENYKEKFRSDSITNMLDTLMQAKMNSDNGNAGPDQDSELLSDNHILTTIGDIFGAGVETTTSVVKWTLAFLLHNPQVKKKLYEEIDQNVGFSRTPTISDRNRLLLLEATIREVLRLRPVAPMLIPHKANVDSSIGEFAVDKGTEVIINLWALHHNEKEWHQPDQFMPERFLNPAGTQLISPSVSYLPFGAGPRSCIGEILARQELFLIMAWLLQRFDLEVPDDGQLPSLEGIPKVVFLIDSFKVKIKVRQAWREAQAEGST

[4] = ketoconazole treated patients; cited from earlier work
[5] = isolated guinea pig hearts; cited from earlier work
[6] = accelerated in the presence of water and elevated temperatures; cited from earlier work
[7] = oral racemic ketoconazole, healthy subjects; cited from earlier work
[8] = patients, after fourteen daily doses

Compound | hepatic extraction (from the plasma into the liver) [1] | plasma level (pharmacokinetic profile) of the enantiomer after racemic ketoconazole [1, 8] | lowering of plasma testosterone (plasma testosterone [2]) | time course of depression of plasma testosterone (plasma testosterone [3]) | potency toward 17,20 lyase (17,20 lyase) | inhibition of 17α hydroxylase (17α hydroxylase) | level of liver specific enzymes in the serum [4] | risk of cardiac arrhythmia [5] | degradation (oxidation) [6] | time course of depression of plasma testosterone (plasma testosterone [3]; 200 mg/kg) | time course of depression of plasma testosterone (plasma testosterone [3]; listed as 2S,4R, 200 mg/kg) | plasma level (pharmacokinetic profile) of the 2S,4R enantiomer given alone ([1]; patients, 200 mg 2S,4R enantiomer once per day, after fourteen daily doses) | plasma level of the enantiomer after racemic ketoconazole [7]
CC(=O)N1CCN(c2ccc(OC[C@H]3CO[C@](Cn4ccnc4)(c4ccc(Cl)cc4Cl)O3)cc2)CC1 (single isomer, unassigned) [2R,4S enantiomer, reference compound] | more efficient extraction | approximately one third of the plasma concentration of the 2S,4R enantiomer |  |  |  |  |  |  |  |  |  |  | 
CC(=O)N1CCN(c2ccc(OCC3COC(Cn4ccnc4)(c4ccc(Cl)cc4Cl)O3)cc2)CC1 (racemic) [racemic ketoconazole, 1-acetyl-4-[4-[[2-(2,4-dichlorophenyl)-2-[(1H-imidazol-1-yl)-methyl]-1,3-dioxolan-4-yl]methoxy]phenyl]piperazine] |  |  | dose dependent effect | testosterone levels recover following dosing | inhibit | inhibit | increase in these enzymes has been noted | may be associated with an increased risk of cardiac arrhythmia | can undergo degradation (oxidation) |  |  |  | 
CC(=O)N1CCN(c2ccc(OC[C@@H]3CO[C@@](Cn4ccnc4)(c4ccc(Cl)cc4Cl)O3)cc2)CC1 [2S,4R enantiomer] | relatively low hepatic extraction | significantly greater than the pharmacokinetic profile of the 2R,4S enantiomer | more effective at lowering testosterone than any either racemic ketoconazole or the 2R,4S enantiomer of ketoconazole; also recorded: significantly more efficacious than both the ketoconazole racemate and the other cis enantiomer (2R,4S) |  | more potent toward 17,20 lyase than is the other enantiomer 2R,4S |  |  |  |  | more effective at lowering testosterone than either racemic ketoconazole or the other cis enantiomer present in racemic ketoconazole (2R,4S) | significantly more efficacious than 2R,4S with respect to reducing testosterone levels | very similar when given alone; also recorded: approximately the same as the plasma level of the 2S,4R enantiomer when patients are given both 200 mg 2S,4R and 200 mg 2R,4S | approximately three times greater than that of the 2R,4S enantiomer
